# Legend:
# Assay type in all cases: functional
# Candida albicans [1] = assay: Inhibitory activity against the Candida albicans (40 clinical isolates), determined at pH-5.8
# Candida albicans [2] = assay: 50% inhibitory activity against Candida albicans (40 clinical isolates) determined at pH-5.8
# Candida [3] = assay: Resistance against all Candida. species (40 clinical isolates) at 256 micro g/mL (pH=5.8). Activity is expressed as R%.
# Candida albicans [4] = assay: Inhibitory activity against Candida albicans (40 clinical isolates), determined at pH-7.2
# Candida [5] = assay: 90% inhibitory activity against Candida. species (40 clinical isolates) determined at pH-7.2
# Candida albicans [6] = assay: Inhibitory activity against the Candida albicans (40 clinical isolates), determined at pH-7.2
# Candida [7] = assay: Inhibitory activity against Candida. species. (40 clinical isolates), determined at pH-5.8
# Candida albicans [8] = assay: Inhibitory activity against Candida albicans (40 clinical isolates), determined at pH-5.8
# Candida albicans [9] = assay: Percent resistance against Candida albicans (40 clinical isolates) at 256 micro g/mL (pH=5.8), activity is expressed as R%.
# Candida [10] = assay: Inhibitory activity against Candida. species (40 clinical isolates), determined at pH-5.8
# Candida [11] = assay: Inhibitory activity against Candida. species. (40 clinical isolates), determined at pH-7.2
# Candida albicans [12] = assay: Resistance against Candida. albicans (40 clinical isolates) at 256 ug/mL (pH=7.2), activity is expressed as R%.
# Candida albicans [13] = assay: 50% inhibitory activity against Candida albicans (40 clinical isolates) determined at pH-7.2
# Candida [14] = assay: 50% inhibitory activity against the Candida. species (40 clinical isolates) was determined at pH-7.2
# Candida [15] = assay: Percent resistance against all Candida. species (40 clinical isolates) at 256 micro g/mL (pH=7.2), activity is expressed as R%.
# Candida [16] = assay: 90% inhibitory activity against the Candida. species (40 clinical isolates) was determined at pH-7.2
# [17] = Candida albicans, read-out: MIC50
Structure (SMILES),MIC90 (Candida albicans [1]),MIC50 (Candida albicans [2]),R (Candida [3]),MIC (Candida albicans [4]),MIC90 (Candida [5]),MIC90 (Candida albicans [6]),MIC (Candida [7]),MIC (Candida albicans [8]),R (Candida albicans [9]),MIC50 (Candida [10]),MIC90 (Candida [10]),MIC (Candida [11]),R (Candida albicans [12]),MIC50 (Candida albicans [13]; [17]),MIC50 (Candida [14]),R (Candida [15]),MIC90 (Candida [16]),MIC50 (Candida albicans [13])
O=[N+]([O-])c1ccc(C(c2c[nH]cc2-c2ccc(Cl)cc2Cl)n2ccnc2)cc1 (centres undefined),64 µg/mL,16 µg/mL,0%,38.5 µg/mL,> 256 µg/mL,64 µg/mL,30.2 µg/mL,22.9 µg/mL,0%,32 µg/mL,32 µg/mL,> 207 µg/mL,0%,32 µg/mL,256 µg/mL,30%,–,–
Cc1ccc(C(c2c[nH]cc2-c2ccccc2Cl)n2ccnc2)cc1 (centres undefined),64 µg/mL,32 µg/mL,0%,13.2 µg/mL,32 µg/mL,64 µg/mL,41.7 µg/mL,35.4 µg/mL,0%,32 µg/mL,64 µg/mL,30.1 µg/mL,0%,4 µg/mL,32 µg/mL,0%,–,–
Clc1ccccc1-c1c[nH]cc1C(c1ccc(-n2cccc2)cc1)n1ccnc1 (centres undefined),16 µg/mL,8 µg/mL,0%,25.3 µg/mL,64 µg/mL,64 µg/mL,30.2 µg/mL,20.5 µg/mL,0%,32 µg/mL,32 µg/mL,24.1 µg/mL,0%,8 µg/mL,16 µg/mL,0%,–,–
Fc1ccc(C(c2c[nH]cc2-c2ccccc2)n2ccnc2)cc1 (centres undefined),128 µg/mL,–,0%,55.1 µg/mL,–,64 µg/mL,99.5 µg/mL,71.2 µg/mL,0%,64 µg/mL,128 µg/mL,74.5 µg/mL,0%,32 µg/mL,64 µg/mL,0%,128 µg/mL,64 µg/mL
Clc1ccc(-c2c[nH]cc2C(c2ccc(Cl)c(Cl)c2)n2ccnc2)cc1Cl (centres undefined),32 µg/mL,8 µg/mL,50%,14 µg/mL,> 256 µg/mL,32 µg/mL,> 328 µg/mL,9.2 µg/mL,0%,256 µg/mL,> 256 µg/mL,> 309 µg/mL,0%,8 µg/mL,> 256 µg/mL,50%,–,–
Clc1ccc(C(c2c[nH]cc2-c2ccc(Cl)c(Cl)c2)n2ccnc2)c(Cl)c1 (centres undefined),16 µg/mL,2 µg/mL,0%,5.8 µg/mL,32 µg/mL,16 µg/mL,27.7 µg/mL,5.9 µg/mL,0%,32 µg/mL,32 µg/mL,38.2 µg/mL,0%,2 µg/mL,32 µg/mL,0%,–,–
Cc1ccc(C(c2c[nH]cc2-c2ccccc2)n2ccnc2)cc1 (centres undefined),256 µg/mL,–,0%,48.4 µg/mL,–,64 µg/mL,71 µg/mL,133 µg/mL,0%,64 µg/mL,256 µg/mL,51.6 µg/mL,0%,32 µg/mL,64 µg/mL,0%,64 µg/mL,64 µg/mL
Clc1ccc(-c2c[nH]cc2C(c2ccc(Cl)cc2Cl)n2ccnc2)c(Cl)c1 (centres undefined),16 µg/mL,2 µg/mL,0%,20.6 µg/mL,256 µg/mL,16 µg/mL,23.4 µg/mL,7.4 µg/mL,0%,32 µg/mL,32 µg/mL,101 µg/mL,0%,8 µg/mL,256 µg/mL,0%,–,–
O=[N+]([O-])c1ccc(C(c2c[nH]cc2-c2ccccc2)n2ccnc2)cc1 (centres undefined),128 µg/mL,8 µg/mL,0%,5.18 µg/mL,–,64 µg/mL,182 µg/mL,56.7 µg/mL,0%,128 µg/mL,> 256 µg/mL,> 192 µg/mL,0%,8 µg/mL,256 µg/mL,20%,256 µg/mL,–
